Experimental data published in ChEMBL document CHEMBL4118071, “Discovery of unsymmetrical aromatic disulfides as novel inhibitors of SARS-CoV main protease: Chemical synthesis, biological evaluation, molecular docking and 3D-QSAR study” (Eur J Med Chem, 2017).
Activity calls are given as the source filed them. The rule behind the calls is not given here.

Tests used:
[1] = Inhibition of SARS coronavirus Mpro using MCA-AVLQSGFR-Lys(Dnp)-Lys-NH as substrate by fluorescence assay; parameters: species or system Severe acute respiratory syndrome-related coronavirus
[2] = tested on: Severe acute respiratory syndrome-related coronavirus; conditions: 2 to 4 uM
[3] = tested on: Severe acute respiratory syndrome-related coronavirus

CCOC(=O)/C=C/[C@H](C[C@@H]1CCNC1=O)NC(=O)[C@H](CCC(C)C)NC(=O)[C@@H](NC(=O)[C@@H](NC(=O)c1ccco1)C(C)C)C(C)C gave a Ki [1] of 6.7 µM.

In the case of Brc1ccc(SSc2ncccn2)cc1, the inhibition [2] is reported as “Active”.

Clc1ccc(SSc2nnco2)cc1 gave an alphaKi [3] of 0.2 µM.
